# In patent publication US6555330B1, “Oncogene-induced apoptosis in drug-resistant cells” (Cold Spring Harbor Laboratory, priority 1996, dated 2003):
# Legend:
# [1] = test system: Interleukin-1β-converting enzyme-like proteases (ILPs); experiment: Fluorescent substrate (DEVD-AFC) assay for ILP activity in 293 cell extracts; type: biochemical, human; settings: for rate of ILP activation (dose response, free AFC generated per minute per milligram of extract): dialyzed S-100 extracts of 293 cells, various concentrations; for rate of ILP activation (dose response, free AFC generated per minute per milligram of extract) / free AFC (cleaved DEVD-AFC) generated in one minute by one milligram of extract: 60 minutes at 37° C.; for free AFC (cleaved DEVD-AFC) generated in one minute by one milligram of extract: 293 cell extracts, vanadate 5 mM, Granzyme B 2 U/ul added before shift
# Experimental: Interleukin-1β-converting enzyme-like proteases activity was measured by monitoring the cleavage of DEVD-AFC. This fluorogenic substrate DEVD-AFC consists of the peptide sequence (DEVD) which resembles the cleavage site in proteins that are degraded by ILPs, conjugated to amino-trifluoromethyl coumarin (AFC). When the peptide and the AFC molecule are attached the substrate is not fluorescent, when it is free it is fluorescent. […] The activated ILPs cleave the bond between the peptide and the AFC, resulting in increased fluorescence, which is detected using a fluorimeter. The assay is performed in a microtiter plate using the format essentially as described by Thomberry, N. A., Methods in Enzymology, 244:615-631 (1994). […] This period of time ranges from 0 to 90 minutes. During the preincubation period of a modulation assay, compounds that are to be assessed for their ability to activate or inhibit apoptosis are also introduced into the sample. Depending upon the purpose of the experiment the test compound may be present for the entire period of the preincubation or only a portion of the time. In order to measure the level of ILP activation 1 μl of extract is added to 200 μl of assay buffer (50 mM PIPES/KOH pH 7.0, 0.1 mM EDTA, 1 mM DTT, 10% glycerol) containing 20 μM DEVD-AFC (Enzyme Systems products). The release of free AFC was measured with a fluorescence plate reader, Cytofluor (Perspective Biosystems). The amount of fluorescence resulting from samples assayed in the presence and absence of potential modulatory compounds is compared to appropriate control samples and expressed as the number of free AFC molecules generated in one minutes by one milligram of cell extract.
# Identifying agents that modulate the apoptotic machinery of 293 cellular extracts Dialyzed S-100 extracts of 293 cells were incubated for 60 minutes at 37° C. with various concentrations of either ATP, EDTA or sodium ortho-vanadate. ILP activity was then measured using the fluorogenic substrate assay. (FIGS. 8A-C).
# To determine whether bcl-2 blocks ILP activation or inhibits the enzymatic activity of ILPs, bcl-2 was added to extracts either before or after incubation at 37° C. and monitored ILP activity by a quantitative enzymatic assay. Bc1-2 (40 μg/ml) was added to 293 extract either before incubation at 37° C. or after 15 minutes of the incubation (additions indicated by arrows). ILP activity against DEVD-AFC was measured as described above (FIG. 3).
# As described below, the system described above can be used to screen for compounds that effect ILP activation. […] Vanadate (0.1, l and 5 mM) was added to extracts from 293 cells and the extracts then shifted to 37° C. and incubated for 30 minutes. The rate of DEVD-AFC proteolysis was then determined.
# Vanadate (5 mM) was added to extracts either before 60 minutes incubation at 37° C. or after 60 minutes incubation. The extracts were then incubated for a further 60 minutes and the rate of DEVD-AFC proteolysis determined.
# Extracts from 293 cells were incubated for 60 minutes at 37° C. Where indicated vanadate (5 mM), Granzyme B (2 U/ul ) or DEVD-CMK (10 μM) was added before the extract was shifted to 37° C. After 60 minutes the rate of DEVD-AFC proteolysis was determined. Data is representative of two experiments. In parallel, nuclei (1×10^7/ml) were incubated at 37° C. for 60 minutes with extracts treated with vanadate (5 mM), Granzyme B (2 U/ul) or DEVD-CMK (10 μM) where indicated. Nuclei were also incubated at 4° C. with extract or at 37° C. with Granzyme B but no extract.
# Extracts were incubated at 37° C. and vanadate was added at the indicated times (arrows) to a final concentration of 5 mM. The rate of DEVD-AFC proteolysis in untreated extract (closed symbols) or vanadate treated extracts (open symbols) was measured at the indicated times. Data is representative of three experiments.
# Jurkat cells = experiment: Apoptotic nuclear morphology (DAPI) in intact Jurkat cells; type: cell-based; settings: etoposide 50 μM
# Experimental: (§1) Intact cells or isolated nuclei were fixed with 4% paraformaldehyde, stained with DAPI (1μg/ml) and examined by fluorescence microscopy. The percentage of cells showing apoptotic nuclear morphology was determined. Images were acquired using a Photometrics PXL CCD camera (Photometrics Ltd) controlled by Oncor Image software (Oncor Inc.). Figures were prepared using Adobe Photoshop software. Jurkat cells (1×10^5/ml) (FIG. 1A) or 293 cells (1×10^5/ml) (FIG. 1B) were incubated with or without etoposide (50 μM). Cells were fixed at the indicated times and stained with DAPI. The percentage of cells with apoptotic nuclear morphology was determined. Samples were also taken to assess ILP activation.
# 293 cells = experiment: Apoptotic nuclear morphology (DAPI) in intact 293 cells; type: cell-based, human; settings: etoposide 50 μM
# Experimental: as §1
# [2] = test system: ICE-like proteases (ILPs) in Jurkat cells; experiment: Affinity labeling of active ILPs in Jurkat cells; type: cell-based; settings: Jurkat cells treated with etoposide
# Experimental: (§2) Cells (2×10^6) were centrifuged (200 g, 5 minutes) and resuspended in […] MDB containing 10 μM biotinylated YVAD.AMK (plus protease inhibitors and […] cytochalasin B) and lysed by freeze/thawing for three cycles. The lysate was centrifuged (16,000 g, 20 minutes, 4° C.) and the supernatant incubated at 37° C. for 4 minutes to label active ILPs. The protein concentration was determined (Bradford assay), an equal volume of 2×SDS sample buffer added and the sample boiled for 5 minutes.
# (§3) Extracts were mixed with an equal volume of MDB containing 20 μM biotinylated YVAD.AMK and incubated at 37° C. for 4 minutes to label active ILPs. Labeling was stopped by adding an equal volume of 2×SDS sample buffer and samples were subjected to 15% SDS-PAGE. Proteins were transferred to a PVDF Immobilon P^SQ membrane (Millipore Corp.) and the membrane washed (methanol, 5 minutes) and dried (80° C., 15 minutes). The blot was incubated with avidin (1 μg/ml) followed by Biotin-horse radish peroxidase (0.05 μg/ml), and labeled proteins detected by ECL (Amersham Inc.).
# (§4) To avoid relying solely on the morphological manifestations of apoptosis, whether activation of ILPs, a biochemical hallmark of apoptosis, occurred in 293 cells treated with etoposide was also determined. Jurkat cells (2×10^6) or 293 cells (2×10^6) were incubated with biotin-YVAD-AMK, an affinity probe that labels active ILPs.
# [3] = test system: ICE-like proteases (ILPs) in 293 cells; experiment: Affinity labeling of active ILPs in 293 cells; type: cell-based, human; settings: 293 cells treated with etoposide
# Experimental: as §2, §3, §4
# [4] = test system: apoptotic machinery of 293 cell extracts; experiment: In vitro apoptosis of isolated HeLa nuclei in 293 cell extracts; parameters: species or system human
# Experimental: Extracts were prepared essentially as described (Lazebnik, Y. A., et al., J. Cell. Biol., 123:7-22 (1993)). 293 cells (5-7×10^5 cells/ml)were washed and gently resuspended in 10× pellet volumes of extract preparation buffer (50 mM PIPES pH 7.0, 50 mM KCl, 5 mM EGTA, 2mM MgCl2, 1 mM DTT) plus 0.1 mM PMSF, 10 μg/ml cytochalasin B and 2 μg/ml each of chymostatin, pepstatin, leupeptin and antipain. Cells were immediately centrifuged (200 g, 5 minutes) and lysed by three cycles of freeze/thawing with liquid nitrogen. The lysate was centrifuged at 100,000 g for two hours, giving a cell extract. […]
# Intact cells or isolated nuclei were fixed with 4% paraformaldehyde, stained with DAPI (1μg/ml) and examined by fluorescence microscopy. The percentage of cells showing apoptotic nuclear morphology was determined. […]
# 293 cell extracts (10 μl) were incubated with isolated HeLa nuclei (1×10^5) for 60 minutes at 37° C. either alone or with biotin-YVAD-AMK (100 μM), an inhibitor of ILPs. After incubation aliquots of the reaction were fixed, stained with DAPI and examined by fluorescence microscopy.
# Extracts from E1A/E1B transformed MEFs or 293 cells (10 μl) were incubated with bcl-2 (40 μg/ml) for 10 minutes at 37° C. prior to further incubation with HeLa nuclei (1×10^5) for 60 minutes. Nuclei were fixed, stained with DAPI and examined by fluorescence microscopy. […]
# [5] = test system: ICE-like proteases (ILPs), cpp32; experiment: Affinity labeling of ILPs and cpp32 immunoblotting in 293 cell extracts; type: biochemical, human; settings: Granzyme B added to 293 extracts treated with vanadate
# Experimental: as §3
# Affinity blots were re-probed to detect cpp32. These membranes were soaked in methanol for 5 minutes to inactivate horseradish peroxidase, dried and re-probed with a monoclonal antibody to cpp32 (Transduction Laboratories) followed by incubation with a secondary antibody conjugated to horseradish peroxidase. The antigen-antibody complex was detected by ECL (Amersham Inc).
# Prevention of apoptosis was achieved only if extracts were pre-incubated with bcl-2 before addition of nuclei. […] The same extracts were incubated alone, with buffer or with bcl-2 (40 μg/ml) for 70 minutes at 37° C. and active ILPs labeled with biotin YVAD.AMK (10 μM). Samples were subjected to 15% SDS-PAGE, transferred to a PVDF membrane and labeled ILPs visualized by ECL.
molecule,measurement,setting,value
Nc1ncnc2c1ncn2[C@@H]1O[C@H](COP(=O)(O)OP(=O)(O)OP(=O)(O)O)[C@@H](O)[C@H]1O [ATP],"rate of ILP activation (dose response, free AFC generated per minute per milligram of extract)",[1],increases the rate of ILP activation
O=C(O)CN(CCN(CC(=O)O)CC(=O)O)CC(=O)O [EDTA],"rate of ILP activation (dose response, free AFC generated per minute per milligram of extract)",[1],decreases the rate of ILP activation
COc1cc([C@@H]2c3cc4c(cc3[C@@H](O[C@@H]3O[C@@H]5CO[C@@H](C)O[C@H]5[C@H](O)[C@H]3O)[C@H]3COC(=O)[C@H]23)OCO4)cc(OC)c1O [etoposide],induction of apoptotic morphology,Jurkat cells,sufficient to kill Jurkat cells
same,induction of apoptotic morphology,293 cells,no morphological signs of apoptosis
same,active ILPs detected by biotin-YVAD-AMK affinity labeling,[2],multiple active ILPs were detected
same,active ILPs detected by biotin-YVAD-AMK affinity labeling,[3],No active ILPs were detected
"[Na+].[Na+].[Na+].[O]=[V]([O-])([O-])[O-] [vanadate, sodium ortho vanadate]",free AFC (cleaved DEVD-AFC) generated in one minute by one milligram of extract,[1],1.4 pmol/min
same,"rate of ILP activation (dose response, free AFC generated per minute per milligram of extract)",[1],decreases the rate of ILP activation
same,ILP activity (rate of DEVD-AFC proteolysis),"[1]; vanadate 5 mM added after 60 minutes incubation at 37° C. (ILPs already active), further 60 minutes",had no effect on ILP activity
same,process of ILP activation (rate of DEVD-AFC proteolysis),[1]; vanadate 5 mM added at different times after shift of 293 extract to 37° C.,arrested the process of ILP activation irrespective of when it was added
same,inhibition of ILP activation,"[1]; vanadate 5 mM added before shift to 37° C., all extracts",complete inhibition
same,rate of DEVD-AFC proteolysis,"[1]; vanadate 0.1, 1 and 5 mM added before shifting 293 extract to 37° C., 30 minutes",inhibited cleavage of DEVD-AFC
Granzyme B: a serine protease which activates ILPs directly,effect on vanadate inhibition of in vitro apoptosis (nuclei),"[4]; Granzyme B 2 U/ul added to 293 extracts treated with vanadate 5 mM, nuclei 60 minutes at 37° C.",completely overcame vanadate inhibition
same,free AFC (cleaved DEVD-AFC) generated in one minute by one milligram of extract,[1],0 pmol/min
same,effect on vanadate inhibition of ILP activity,[1]; Granzyme B 2 U/ul added to 293 extracts treated with vanadate 5 mM,completely overcame vanadate inhibition
same,"ILP activation and cpp32 processing (affinity labeling, immuno-blotting)",[5],resulted in ILP activation and cpp32 processing
biotin-YVAD-acyloxymethylketone [biotin YVAD-amk],nuclear morphological changes of apoptosis in HeLa nuclei,"[4]; 293 cell extract, inhibitor 100 μM, 60 minutes at 37° C.",prevented the nuclear morphological changes of apoptosis
